Earlier results on 1 compound are cited in patent US11160882B2, “Indirect chromoendoscopy with an oral indigo carmine base preparation” (priority 2014, dated 2021).

For data set [1] the following is noted: humans (Oravisto K., 1957).
For data set [2], the system named is colon. The settings on record: 100 mg oral powder before the colonic prep.
Data set [3] deals with colon. The settings on record: 100 mg oral capsule before the colonic prep.
The conditions of data set [4]: rat, oral (Lethco et al., 1966).

Regarding `O=C1/C(=C2\Nc3ccc(S(=O)(=O)[O-])cc3C2=O)Nc2ccc(S(=O)(=O)[O-])cc21.[Na+].[Na+]` [indigo carmine], in data set [1], the “clearance of absorbed food colorant from circulation” value is on record as “cleared very rapidly”. Under “oral administration”, the “toxicity from oral administration” value is given as “no reports of toxicity”. Besides, under “use as a food colorant”, the “daily intake certified by the FDA” value is “up to 2 mg/kg”. The side effects result in data set [2] is reported as “No side effects were observed”. Moreover, the “cases with good effect (staining), left colon” value in data set [2] (left colon) is 50%. The “cases with good effect (staining), right colon” value in data set [2] (right colon) was 80%. For the same compound, in data set [3], the “cases in which staining of the entire colon was ineffective” value is “over 90%”. In addition, the “dye taken orally that was absorbed” value in data set [4] was 3%.
